Test results from paper PMC5458626 (American heart journal, 2017).
“Also recorded” adds a separate entry of the source. Each block holds one molecule with its values, some of them ahead of it.

Columns and labels:
Adverse events = format: in vivo, human
[1] = Plasma pharmacokinetics of udenafil and DA-8164; conditions: for DA-8164 Cmax: plasma metabolite
[2] = Echocardiography: myocardial performance index; format: in vivo, human; conditions: for Blood pool MPI, follow-up measurement / Tissue Doppler MPI, follow-up measurement: day 5; for Blood pool MPI, difference FU – BL: day 5 minus baseline (negative = improvement)
Exercise stress test = format: in vivo, human; conditions: for Maximal VO2 at maximum exercise effort, follow-up measurement / VO2 at anaerobic threshold, follow-up measurement: day 5, mean ± SD
[3] = Vascular function by peripheral arterial tonometry; format: in vivo, human; conditions: for Augmentation Index adjusted to HR 75, follow-up measurement / Natural log of Reactive Hyperemic Index, follow-up measurement: day 5; for Natural log of Reactive Hyperemic Index, difference FU – BL: day 5 minus baseline (positive = improvement)
[4] = adult males, oral administration; ref [15]–[17]; cited from earlier work
[5] = tested on: Phosphodiesterase Type 5 (PDE5); conditions: major circulating metabolite; ref [15]–[17]; cited from earlier work
[6] = total udenafil, all cohorts, N=30
[7] = udenafil 37.5 mg daily, 5 days, N=6
[8] = udenafil 37.5 mg twice daily, 5 days, N=6
[9] = udenafil 125 mg daily, 5 days, N=6
[10] = once-daily dosing, dose increased 3.3 times (37.5 to 125 mg)
[11] = oral udenafil 37.5 mg bid for five days, mean (%CV), N=6
[12] = oral udenafil 37.5 mg daily for five days, mean (%CV), N=6
[13] = oral udenafil 125 mg daily for five days, mean (%CV), N=6
[14] = metabolite, oral udenafil 37.5 mg bid for five days, mean (%CV), N=6
[15] = metabolite, oral udenafil 37.5 mg daily for five days, mean (%CV), N=6
[16] = metabolite, oral udenafil 125 mg daily for five days, mean (%CV), N=6
[17] = once-daily dosing, dose increased 3.3 times
[18] = twice-daily dosing, dose increased 2.3 times

Dose dependence of oral clearance (CL/F) ([1]; across the five dosing cohorts): decreased with increasing dose | Cmax ([1]; human, plasma, po, 37.5 mg, Udenafil Cmax, oral udenafil 37.5 mg bid for five days, mean (%CV), N=6): 152 ng/mL | Fold increase of mean udenafil AUC0−τ with dose [1, 10]: 4 fold | Fold increase of mean udenafil Cmax with dose [1, 10]: 4.6 fold | Udenafil CL/F (oral clearance) [1, 11]: 39.9 (36) L/h | Udenafil CL/F (oral clearance) [1, 12]: 53.3 (40) L/h | Udenafil CL/F (oral clearance) [1, 13]: 43.3 (39) L/h
SMILES: CCCOc1ccc(S(=O)(=O)NCCC2CCCN2C)cc1-c1nc2c(CCC)nn(C)c2c(=O)[nH]1 (stereo not shown) [udenafil]
Subjects with facial flushing possibly or probably related to study medication (Adverse events; 30 subjects, all cohorts): 33% | Subjects with nasal congestion possibly or probably related to study medication (Adverse events; 30 subjects, all cohorts): 20% | Subjects with nausea possibly or probably related to study medication (Adverse events; 30 subjects, all cohorts): 10% | Dose dependence of reported AEs (Adverse events; across the five dosing cohorts): did not increase with increasing dose | Subjects with headache (most common AE) (Adverse events; of 30 subjects exposed to udenafil, all cohorts): 19 subjects | Subjects with headache possibly or probably related to study drug (Adverse events; of the 30 subjects, all cohorts): 63% | Drug-related serious adverse events (Adverse events; study period, all dosing cohorts): No drug-related serious AEs; also recorded: no drug-related serious adverse events were reported | Subjects who experienced drug-related (probably or possibly) adverse events: Headache (Adverse events; [6]): 19 (63) n (%) | Subjects who experienced drug-related adverse events: Abdominal discomfort (Adverse events; [6]): 2 (7) n (%) | Subjects who experienced drug-related adverse events: Back pain (Adverse events; [6]): 1 (3) n (%) | Subjects who experienced drug-related adverse events: Flushing (Adverse events; [6]): 10 (33) n (%) | Subjects who experienced drug-related adverse events: Nasal congestion (Adverse events; [6]): 6 (20) n (%) | Subjects who experienced drug-related adverse events: Nausea (Adverse events; [6]): 3 (10) n (%) | Subjects who experienced drug-related (probably or possibly) adverse events: Headache (Adverse events; [7]): 3 (50) n (%) | Subjects who experienced drug-related adverse events: Abdominal discomfort (Adverse events; [7]): 0 (0) n (%) | Subjects who experienced drug-related adverse events: Back pain (Adverse events; [7]): 0 (0) n (%) | Subjects who experienced drug-related adverse events: Flushing (Adverse events; [7]): 1 (17) n (%) | Subjects who experienced drug-related adverse events: Nasal congestion (Adverse events; [7]): 1 (17) n (%) | Subjects who experienced drug-related adverse events: Nausea (Adverse events; [7]): 1 (17) n (%) | Subjects who experienced drug-related adverse events: Spontaneous penile erection (Adverse events; udenafil 37.5 mg daily, 5 days, N=6, male subjects only): 0 (0) n (%) | Subjects who experienced drug-related (probably or possibly) adverse events: Headache (Adverse events; [8]): 4 (67) n (%) | Subjects who experienced drug-related adverse events: Abdominal discomfort (Adverse events; [8]): 0 (0) n (%) | Subjects who experienced drug-related adverse events: Back pain (Adverse events; [8]): 0 (0) n (%) | Subjects who experienced drug-related adverse events: Flushing (Adverse events; [8]): 2 (33) n (%) | Subjects who experienced drug-related adverse events: Nasal congestion (Adverse events; [8]): 2 (33) n (%) | Subjects who experienced drug-related adverse events: Nausea (Adverse events; [8]): 1 (17) n (%) | Subjects who experienced drug-related (probably or possibly) adverse events: Headache (Adverse events; [9]): 4 (67) n (%) | Subjects who experienced drug-related adverse events: Abdominal discomfort (Adverse events; [9]): 1 (17) n (%) | Subjects who experienced drug-related adverse events: Back pain (Adverse events; [9]): 0 (0) n (%) | Subjects who experienced drug-related adverse events: Flushing (Adverse events; [9]): 1 (17) n (%) | Subjects who experienced drug-related adverse events: Nasal congestion (Adverse events; [9]): 1 (17) n (%) | Subjects who experienced drug-related adverse events: Nausea (Adverse events; [9]): 0 (0) n (%) | Effect of gender on dose-normalized Cmax and Cavg ([1]; male (N=17) vs female (N=13), oral udenafil 5 days): not different for the male and female patients | Blood pool MPI, follow-up measurement ([2]; all udenafil subjects, N=28): 0.52±0.17 | Tissue Doppler MPI, follow-up measurement ([2]; all udenafil subjects, N=28): 0.71±0.20 | Blood pool MPI, follow-up measurement ([2]; udenafil 37.5 mg BID, N=6): 0.49±0.087 | Tissue Doppler MPI, follow-up measurement ([2]; udenafil 37.5 mg BID, N=6): 0.73±0.23 | Blood pool MPI, follow-up measurement ([2]; udenafil 37.5 mg QD, N=5): 0.50±0.19 | Tissue Doppler MPI, follow-up measurement ([2]; udenafil 37.5 mg QD, N=5): 0.64±0.21 | Blood pool MPI, follow-up measurement ([2]; udenafil 125 mg QD, N=5): 0.70±0.20 | Tissue Doppler MPI, follow-up measurement ([2]; udenafil 125 mg QD, N=5): 0.82±0.27 | Blood pool MPI, difference FU – BL ([2]; all udenafil subjects, N=27): −0.059±0.13 | Blood pool MPI, difference FU – BL ([2]; udenafil 37.5 mg BID, N=6): −0.003±0.10 | Blood pool MPI, difference FU – BL ([2]; udenafil 37.5 mg QD, N=5): −0.052±0.17 | Blood pool MPI, difference FU – BL ([2]; udenafil 125 mg QD, N=5): −0.054±0.18 | Effect on exercise performance (baseline to day 5) (Exercise stress test; all dosing cohorts, 5 days): did not improve in any of the dosing cohorts | Maximal VO2 at maximum exercise effort, follow-up measurement (Exercise stress test; udenafil 37.5 mg BID, N=6): 28.8 ± 8.1 mL/min/kg | VO2 at anaerobic threshold, follow-up measurement (Exercise stress test; udenafil 37.5 mg BID, N=6): 18.1 ± 3.0 mL/min/kg | Maximal VO2 at maximum exercise effort, follow-up measurement (Exercise stress test; udenafil 37.5 mg QD, N=5): 24.7 ± 6.7 mL/min/kg | VO2 at anaerobic threshold, follow-up measurement (Exercise stress test; udenafil 37.5 mg QD, N=5): 16.3 ± 2.0 mL/min/kg | Maximal VO2 at maximum exercise effort, follow-up measurement (Exercise stress test; udenafil 125 mg QD, N=6): 28.6 ± 3.8 mL/min/kg | VO2 at anaerobic threshold, follow-up measurement (Exercise stress test; udenafil 125 mg QD, N=6): 20.0 ± 3.2 mL/min/kg | Effect on lnRHI and AI (baseline to day 5) ([3]; all dosing cohorts, 5 days): no discernible differences between paired baseline and follow-up measures of lnRHI or AI in any dosing cohort | Augmentation Index adjusted to HR 75, follow-up measurement ([3]; all udenafil subjects, N=28): −2.18±13.91 | Natural log of Reactive Hyperemic Index, follow-up measurement ([3]; all udenafil subjects, N=28): 0.49±0.28 | Augmentation Index adjusted to HR 75, follow-up measurement ([3]; udenafil 37.5 mg BID, N=6): 2.89±7.11 | Natural log of Reactive Hyperemic Index, follow-up measurement ([3]; udenafil 37.5 mg BID, N=6): 0.53±0.29 | Augmentation Index adjusted to HR 75, follow-up measurement ([3]; udenafil 37.5 mg QD, N=6): −0.62±23.82 | Natural log of Reactive Hyperemic Index, follow-up measurement ([3]; udenafil 37.5 mg QD, N=6): 0.51±0.26 | Augmentation Index adjusted to HR 75, follow-up measurement ([3]; udenafil 125 mg QD, N=6): 1.90±8.65 | Natural log of Reactive Hyperemic Index, follow-up measurement ([3]; udenafil 125 mg QD, N=6): 0.52±0.34 | Natural log of Reactive Hyperemic Index, difference FU – BL ([3]; all udenafil subjects, N=27): −0.02±0.30 | Natural log of Reactive Hyperemic Index, difference FU – BL ([3]; udenafil 37.5 mg BID, N=6): −0.07±0.17 | Natural log of Reactive Hyperemic Index, difference FU – BL ([3]; udenafil 37.5 mg QD, N=6): 0.03±0.47 | Natural log of Reactive Hyperemic Index, difference FU – BL ([3]; udenafil 125 mg QD, N=6): −0.10±0.38 | Udenafil terminal half-life [4]: ~16 h

SMILES: CCCOc1ccc(S(N)(=O)=O)cc1-c1nc2c(CCC)nn(C)c2c(=O)[nH]1 [DA-8164]
Potency of DA-8164 relative to udenafil [5]: equipotent | DA-8164 T½ (harmonic mean half-life, 0.693/mean kel) ([1]; metabolite, oral udenafil 37.5 mg bid for five days, N=6): 14.1 h | DA-8164 Cavg (AUC0−τ/τ) [1, 14]: 108 (55) ng/mL | DA-8164 Tmax [1, 14]: 2.1 (78) h | DA-8164 kel [1, 14]: 0.0491 (16) h | DA-8164 AUC0−τ ([1]; metabolite, oral udenafil 37.5 mg bid for five days, τ = 12 hours, mean (%CV), N=6): 1290 (55) ng*h/mL | DA-8164 T½ (harmonic mean half-life, 0.693/mean kel) ([1]; metabolite, oral udenafil 37.5 mg daily for five days, N=6): 14.6 h | DA-8164 Cavg (AUC0−τ/τ) [1, 15]: 36.7 (43) ng/mL | DA-8164 Tmax [1, 15]: 3.1 (51) h | DA-8164 kel [1, 15]: 0.0474 (34) h | DA-8164 T½ (harmonic mean half-life, 0.693/mean kel) ([1]; metabolite, oral udenafil 125 mg daily for five days, N=6): 14.5 h | DA-8164 Cavg (AUC0−τ/τ) [1, 16]: 145 (14) ng/mL | DA-8164 Tmax [1, 16]: 3.8 (35) h | DA-8164 kel [1, 16]: 0.0480 (17) h | Fold increase of mean DA-8164 AUC0−τ with udenafil dose [1, 17]: 4 fold | Fold increase of mean DA-8164 Cmax with udenafil dose [1, 17]: 4.2 fold | DA-8164 Cmax [1, 11]: 159 (52) ng/mL | DA-8164 Cmax [1, 12]: 61.3 (46) ng/mL | DA-8164 Cmax [1, 13]: 256 (13) ng/mL | Fold increase of mean DA-8164 AUC0−τ with udenafil dose [1, 18]: 1.9 fold | Fold increase of mean DA-8164 Cmax with udenafil dose [1, 18]: 1.8 fold
